From US20240115726A1, “HYDRAZONE-BASED SAPONIN DERIVATIVES” (priority 2020, published 2024)

Legend:
[1] = system: A431 cells; assay: Toxicity of saponin alone, cell viability (MTS); assay type: cell-based; details: Homo sapiens, A-431
Description: Cell viability was determined by an MTS-assay, performed according to the manufacturer's instruction (CellTiter 96® AQueous One Solution Cell Proliferation Assay, Promega). Briefly, the MTS solution was diluted 20× in DMEM without phenol red (PAN-Biotech GmbH) supplemented with 10% FBS (PAN-Biotech GmbH). The cells were washed once with 200 μL PBS per well, after which 100 μL diluted MTS solution was added per well. The plate was incubated for approximately 20-30 minutes at 37° C. Subsequently, the optical density at 492 nm was measured on a Thermo Scientific Multiskan FC plate reader (Thermo Scientific). For quantification the background signal of ‘medium only’ wells was subtracted from all other wells, before the ratio of untreated/treated cells was calculated, by dividing the background corrected signal of untreated wells over the background corrected signal of the treated wells.

[2] = system: Human Red blood cells; assay: Hemolysis assay; assay type: cell-based; details: for hemolytic activity, comparison in words: fresh Human Red blood cells, FIG. 5
Description: Red blood cells (RBCs) were isolated from a buffy coat using a Ficoll gradient. The obtained RBC pellet (→4-5 ml) was washed 2× with 50 ml DPBS (without Ca^2+/Mg^2+, PAN-Biotech GmbH). Cells were pelleted by centrifugation for 10 min, 800×g at RT. RBC were counted and resuspended at 500,000,000 c/ml in DPBS (without Ca^2+/Mg^2+), based on total cell count. […] For positive lysis control a 0.02% Triton-X100 solution was prepared in DPBS^+/+. Of all compound solutions 135 μl was dispensed/well in a 96 well V-bottom plate. To this 15 μl RBC suspension was added and mixed shortly (10 sec-600 rpm). The plate was incubated 30 min at RT, with gentle agitation. Afterwards the plate was spun for 10 min at 800×g to pellet the RBC and 100-120 μl supernatant was transferred to a standard 96 wp. Subsequently, the OD at 405 nm was measured on a Thermo Scientific Multiskan FC plate reader (Thermo Scientific). For quantification the background signal of ‘DPBS^+/+ only’ wells was subtracted from all other wells before the percentage of hemolysis was calculated in comparison to 0.02% Triton-X100, by dividing the background corrected signal of treated wells over the background corrected signal of the 0.02% Triton-X100 wells (×100).

[3] = system: HeLa cells; assay: Toxicity of saponin alone, cell viability (MTS); assay type: cell-based; details: for toxicity, comparison in words: HeLa and A431 cells, FIG. 4; for IC50: Homo sapiens, HeLa cells, saponin alone
Description: Next, toxicity was determined. […] SO1861-EMCH (blocked): the maleimide functional group is conjugated with mercapto-ethanol.

[4] = system: A431 cells; assay: Endosomal escape enhancing activity: saponin titrated with fixed non-effective toxin conjugate, cell killing (MTS)
Description: (§1) Cell viability was determined by an MTS-assay, performed according to the manufacturer's instruction (CellTiter 96® AQueous One Solution Cell Proliferation Assay, Promega). Briefly, the MTS solution was diluted 20× in DMEM without phenol red (PAN-Biotech GmbH) supplemented with 10% FBS (PAN-Biotech GmbH). The cells were washed once with 200 μL PBS per well, after which 100 μL diluted MTS solution was added per well. The plate was incubated for approximately 20-30 minutes at 37° C. […] For quantification the background signal of ‘medium only’ wells was subtracted from all other wells, before the ratio of untreated/treated cells was calculated, by dividing the background corrected signal of untreated wells over the background corrected signal of the treated wells.

[5] = system: HeLa cells; assay: as above
Description: as §1

[6] = Homo sapiens, A-431, read-out: IC50 nM (Activity; +5 pM EGFdianthin)
[7] = Homo sapiens, HeLa, read-out: IC50 nM (Activity; +5 pM EGFdianthin)

Q: `CC(=O)OC1C(C)OC(OC2C(C)OC(OC(=O)[C@]34CCC(C)(C)CC3C3=CCC5[C@@]6(C)CC[C@H](OC7OC(C(=O)O)C(O)C(OC8OCC(O)C(O)C8O)C7OC7OC(CO)C(O)C(O)C7O)CC6[C@@](C)(/C=N/NC(=O)CCOCCOCCOCCOCCN6N=NC7c8ccccc8CN(C(=O)CCC(=O)ON8C(=O)CCC8=O)c8ccccc8C76)C[C@@]5(C)[C@]3(C)C[C@H]4O)C(OC3OC(C)C(OC4OCC(O)C(OC5OC(CO)C(O)C(O)C5O)C4O)C(O)C3O)C2O)C(O)C1OC1OCC(O)C(O)C1O` (stereo partly drawn) was tested. Which IC50 [1] did it give?
A: > 30 µM

Q: And the IC50 ([2]; Homo sapiens, Erythrocyte, red blood cells, Table 3)?
A: > 1000 µM

Q: And the “hemolytic activity, comparison in words” value [2]?
A: comparable hemolytic activity

Q: And the “toxicity, comparison in words” value [3]?
A: comparable with the toxicity observed with SO1861-EMCH

Q: What about the IC50 [3] of the same molecule?
A: > 100 µM

Q: And the IC50 [4, 6]?
A: 3000 nM

Q: What about the IC50 ([4]; read-out: IC50 (activity; +10 pM Cetuximab-saporin), A431 cells, +10 pM Cetuximab-saporin) of the same molecule?
A: 2000 nM

Q: And the IC50 [5, 7]?
A: 4000 nM

Q: And the IC50 ([5]; read-out: IC50 (activity; +10 pM Cetuximab-saporin), HeLa cells, +10 pM Cetuximab-saporin)?
A: 2000 nM

Q: What about the IC50 ([5]; read-out: IC50 (activity; +50 pM Trastuzumab-saporin), HeLa cells, +50 pM Trastuzumab-saporin) of the same molecule?
A: 3000 nM

Q: What does the source list for `CC(=O)OC1C(C)OC(OC2C(C)OC(OC(=O)[C@]34CCC(C)(C)CC3C3=CCC5[C@@]6(C)CC[C@H](OC7OC(C(=O)O)C(O)C(OC8OCC(O)C(O)C8O)C7OC7OC(CO)C(O)C(O)C7O)[C@@](C)(C=O)C6CC[C@@]5(C)[C@]3(C)C[C@H]4O)C(OC3OC(C)C(OC4OCC(O)C(OC5OC(CO)C(O)C(O)C5O)C4O)C(O)C3O)C2O)C(O)C1OC1OCC(O)C(O)C1O` (stereo partly drawn) [SO1861, reference compound]?
A: toxicity, comparison in words [3]: strongest toxicity; IC50 [3]: 9 µM; IC50 [4, 6]: 300 nM; endosomal escape enhancing activity, comparison in words ([5]; HeLa and A431 cells, with EGFdianthin, Cetuximab-saporin or Trastuzumab-saporin, FIG. 1-3): strongest activity; IC50 [5, 7]: 500 nM

Q: Which results are given for `CC(=O)OC1C(C)OC(OC2C(C)OC(OC(=O)[C@]34CCC(C)(C)CC3C3=CCC5[C@@]6(C)CC[C@H](OC7OC(C(=O)O)C(O)C(OC8OCC(O)C(O)C8O)C7OC7OC(CO)C(O)C(O)C7O)[C@@](C)(/C=N/NC(=O)CCCCCN7C(=O)C=CC7=O)C6CC[C@@]5(C)[C@]3(C)C[C@H]4O)C(OC3OC(C)C(OC4OCC(O)C(OC5OC(CO)C(O)C(O)C5O)C4O)C(O)C3O)C2O)C(O)C1OC1OCC(O)C(O)C1O` (stereo partly drawn) [SO1861-EMCH, reference compound]?
A: IC50 [1]: > 30 µM; hemolytic activity, comparison in words [2]: comparable hemolytic activity; IC50 [5, 7]: 4000 nM
